Measurements taken from US20060183909A1, “Compositions derived from quinoline and quinoxaline, preparation and use thereof” (priority 2001, published 2006).
Entries after “also recorded” stand apart in the source; their conditions may differ. Like-named read-outs stand apart in the source and are kept apart here.

What was measured:
[1] = tested on: xanthurenic acid receptor; assay: Screening: displacement of [3H]-XA binding to synaptic membranes at a fixed concentration; settings: for % inhibition of XA binding at 10 μM*: compound at 10 μM; for % inhibition of XA binding at 10 μM* / % inhibition of XA binding at 50 μM*: 200 nM [3H]-XA, synaptic membranes, xanthurenic acid set arbitrarily to 100%; for % inhibition of XA binding at 50 μM*: compound at 50 μM
Protocol: If this concentration produces the same or greater displacement than the same concentration of non-radiolabelled XA, then an IC50 is determined. […] The incubation time is 25 min. […] The filters are placed in scintillation vials to which 5 ml of Rotiszint® (Roth) are added and the vials are counted in a Beckman LS6000sc liquid scintillation counter. Specific binding is given as the difference between total binding and nonspecific binding. The percentage inhibition of binding that the synthetic compounds produce is calculated for each compound in relation to its positive control.

[2] = molecular target: xanthurenic acid receptor; assay: Competition protocol, IC50 determination against [3H]-XA binding on synaptic membranes
Protocol: Binding is carried out in 50 mM Pipes buffer pH 7.4 at 0° C. […] If the compound reversibly binds to the binding site of [^3H]-XA, the two ligands will compete with each other and a binding displacement curve for [^3H]-XA can be plotted against the concentration of the competitor molecule. The incubation time is 25 minutes, followed by filtration.

[3] = tested on: xanthurenic acid receptor; assay: In vivo studies of stereotypic behaviors, block of xanthurenic acid effects
[4] = tested on: xanthurenic acid receptor; assay: In vitro electrophysiology experiments, block of xanthurenic acid effects; format: cell-based
[5] = single value, inhibition of binding of 200 nM [3H]-XA, synaptic membranes, read-out: IC50
[6] = two site binding model, second (higher) IC50, 200 nM [3H]-XA, synaptic membranes, read-out: IC50 (μM), second of two values

Row | Compound | % inhibition of XA binding at 10 μM* [1] [%] | other results
1 | O=C(O)c1cc(O)c2c(Cl)cc(Cl)c(O)c2n1 [Compound 3i, 4,8-dihydroxy-5,7-dichloro-quinoline-2-carboxylic acid] | 163 | % inhibition of XA binding at 50 μM* [1]: 80%; IC50 [2, 5]: 4.6 µM
2 | O=C(O)c1cc(O)c2cc(-c3ccccc3)cc(O)c2n1 [Compound 19f, 4,8-dihydroxy-6-pheenyl-quinoline-2-carboxylic acid] | 163.1 | IC50 [2, 5]: 5.2 µM
3 | O=C(O)c1cc(O)c2cccc(O)c2n1 [Xanthurenic acid, reference compound] | 100 | % inhibition of XA binding at 50 μM* [1]: 100%; IC50 ([2]; competition between [3H]-XA and non-radiolabelled XA, read-out: IC50, first site of two site binding model): 0.3 µM; IC50 [2, 6]: 57 µM
4 | O=C(O)c1cc(O)c2cc(Br)cc(O)c2n1 [Compound 3k, 4,8-dihydroxy-6-bromo-quinoline-2-carboxylic acid] | – | IC50 [2, 5]: 12 µM
5 | Nc1cccc2c(O)cc(C(=O)O)nc12 [Compound 3u, 4-hydroxy-8-amino-quinoline-2-carboxylic acid] | – | effect on xanthurenic acid effects in vivo (stereotypic behaviors) [3]: blocks the effects of xanthurenic acid without displaying an intrinsic effect; effect on xanthurenic acid effects in vitro (electrophysiology) [4]: blocks the effects of xanthurenic acid without displaying an intrinsic effect; effect on xanthurenic acid binding, in words [1]: quite potent inhibitor of xanthurenic acid binding; also recorded: potent inhibitors of XA binding to its site; % inhibition of XA binding at 50 μM* [1]: 106%; IC50 [2, 5]: 14.6 µM
6 | O=C(O)c1ccc2cccc(O)c2n1 | – | IC50 ([2]; two site binding model, first (lower) IC50, 200 nM [3H]-XA, synaptic membranes, read-out: IC50 (μM), first of two values): 0.09 µM; IC50 [2, 6]: 12.3 µM
7 | O=C(O)c1cc(O)c2c(-c3ccccc3)ccc(O)c2n1 [Compound 19a, 4,8-dihydroxy-5-phenyl-quinoline-2-carboxylic acid] | 1.8 | –
8 | Cl.O=C(O)c1cc(O)c2cccc(N3CCCCC3)c2n1 [Compound 102b, 4-hydroxy-8-(piperidin-1-yl)-quinoline-2-carboxylic acid hydrochloride] | 92 | –
9 | Cl.Nc1cc(CCc2cccnc2)cc2c(O)cc(C(=O)O)nc12 [Compound 122c, 6-(pyridin-3-yl)ethyl-8-amino-4-hydroxy-quinoline-2-carboxylic acid hydrochloride] | 29 | –
10 | O=C(O)c1cc(O)c2c(C(F)(F)F)ccc(O)c2n1 [Compound 98c, 4,8-dihydroxy-5-trifluoromethyl-quinoline-2-carboxylic acid] | 94 | –
11 | Nc1cc(CCc2ccccc2)cc2c(O)cc(C(=O)O)nc12 [Compound 118c, 6-phenylethyl-8-amino-4-hydroxy-quinoline-2-carboxylic acid] | 66 | –
12 | Cl.Nc1cccc2c(CCc3ccccc3)cc(C(=O)O)nc12 [Compound 94c, 8-amino-4-(2-phenyleth-1-yl)-quinoline-2-carboxylic acid hydrochloride] | 37 | –
13 | Cc1ccc(N)c2nc(C(=O)O)cc(O)c12 [Compound 3v, 4-hydroxy-5-methyl-8-amino-quinoline-2-carboxylic acid] | 23.4 | –
14 | O=C(O)c1cc(O)c2c(Br)ccc(O)c2n1 [Compound 3c, 4,8-dihydroxy-5-bromo-quinoline-2-carboxylic acid] | 42 | –
15 | Cl.O=C(O)c1cc(O)c2cccc(Nc3ccccn3)c2n1 [Compound 109b, 4-hydroxy-8-(pyridin-2-yl-amino)-quinoline-2-carboxylic acid hydrochloride] | 112 | –
16 | CCCCCCCc1cc(O)c2nc(C(=O)O)cc(O)c2c1 [Compound 22b, 4,8-dihydroxy-6-heptyl-quinoline-2-carboxylic acid] | 38 | –
17 | Cl.Nc1cccc2c(N3CCCCC3)cc(C(=O)O)nc12 [Compound 101c, 8-amino-4-(piperidin-1-yl)-quinoline-2-carboxylic acid hydrochloride] | 20 | –
18 | Cl.O=C(O)c1cc(O)c2cccc(N3CCN(Cc4ccccc4)CC3)c2n1 [Compound 105b, 8-(4-benzyl-piperazin-1-yl)-4-hydroxy-quinoline-2-carboxylic acid hydrochloride] | 66 | –

Row | Compound | % inhibition of XA binding at 10 μM* [1] [%] | other results
19 | N#CCCCCCc1cc(N)c2nc(C(=O)O)cc(O)c2c1 [Compound 123c, 6-(5′-cyanopentyl)-8-amino-4-hydroxy-quinoline-2-carboxylic acid] | 100 | –
20 | CN(c1ccccc1)c1cccc2c(O)cc(C(=O)O)nc12.Cl [Compound 106b, 8-[phenyl(methyl)amino]-4-hydroxy-quinoline-2-carboxylic acid hydrochloride] | 29 | –
21 | N#Cc1cccc2c(O)c(C#Cc3ccccc3)c(C(=O)O)nc12 [Compound 67c, 8-cyano-4-hydroxy-3-phenylethynyl-quinoline-2-carboxylic acid] | 0 | –
22 | N#Cc1cccc2c(O)c(Br)c(C(=O)O)nc12 [Compound 66b, 3-bromo-8-cyano-4-hydroxy-quinoline-2-carboxylic acid] | 69 | –
23 | CN1CCN(c2cccc3c(O)cc(C(=O)O)nc23)CC1.Cl [Compound 107b, 8-(4-methyl-piperazin-1-yl)4-hydroxy-quinoline-2-carboxylic acid hydrochloride] | 43 | –
24 | COC(=O)c1cc(O)c2cc(Nc3ccccc3)cc(N)c2n1 [Compound 33c, Methyl-6-(N-anilino)-8-amino-4-hydroxy-quinoline-2-carboxylate] | 97 | –
25 | CN1CCN(c2cc(N)c3nc(C(=O)O)cc(O)c3c2)CC1.Cl [Compound 124b, 6-N-(N-methylpiperazinyl)-8-amino-4-hydroxy-quinoline-2-carboxylic acid hydrochloride] | 109 | –
26 | Cl.O=C(O)c1cc(O)c2cccc(N3CCOCC3)c2n1 [Compound 104b, 4-hydroxy-8-(morpholin-1-yl)-quinoline-2-carboxylic acid hydrochloride] | 40 | –
27 | O=C(O)c1nc2c(O)cccc2c(O)c1Br [Compound 52c, 3-bromo-4,8-dihydroxy-quinoline-2-carboxylic acid] | 143 | –
28 | Nc1cc(C(=O)O)nc2c(N)cccc12 [17'b, 4,8-diamino-quinoline-2-carboxylic acid] | 7.7 | –
29 | O=C(O)c1ccc2c(-c3ccccc3)ccc(O)c2n1 [Compound 19t, 8-hydroxy-5-phenyl-quinoline-2-carboxylic acid] | 50 | –
30 | Cl.O=C(O)c1cc(N2CCOCC2)c2cccc(O)c2n1 [Compound 99c, 8-hydroxy-4-(morpholin-1-yl)-quinoline-2-carboxylic acid hydrochloride] | 220 | –
31 | O=C(O)c1cc(O)c2cccc(F)c2n1 [Compound 36c, 8-fluoro-4-hydroxy-quinoline-2-carboxylic acid] | 94 | –
32 | Nc1cc(O)cc2c(O)cc(C(=O)O)nc12 [Compound 79d, 6-hydroxy-8-amino-4-hydroxy-quinoline-2-carboxylic acid] | 60 | –
33 | O=C(O)c1cc(O)c2ccc(CCc3ccccc3)c(O)c2n1 [Compound 55b, 4,8-dihydroxy-7-phenethyl-quinoline-2-carboxylic acid] | 103 | –
34 | Cl.O=C(O)c1cc(O)c2cccc(-c3nn[nH]n3)c2n1 [Compound 62b, 4-hydroxy-8-(2H-tetrazol-5-yl)-quinoline-2-carboxylic acid hydrochloride] | 94 | –
35 | Cc1cc(N)c2nc(C(=O)O)cc(O)c2c1 [Compound 3w, 4-hydroxy-6-methyl-8-amino-quinoline-2-carboxylic acid] | 0 | –
